Source: patent US20210023065A1, “AMPHIPHILIC THIOL COMPOUNDS AND USES THEREOF” (THE REGENTS OF THE UNIVERSITY OF CALIFORNIA, priority 2018, published 2021)

How the values were obtained:
CD44 = target: T1, CD44 (Homo sapiens, UniProt P16070); assay: Acyl resin-assisted capture detection of CD44 palmitoylation in HeLa cells; format: cell-based; details: 1.25 μmol/10^7 cells, relative to vehicle
T1 construct: we detected the palmitoylation levels of eight known palmitoylated proteins after treatment with 1; endogenous in cells; host or cells: HeLa
Experimental: HeLa cells were grown to confluency in 10 cm plates. Stock solutions of compounds were prepared in DMSO as before and diluted to the final indicated concentration in 5.5 mL of OptiMEM media before adding to cells. Cells were incubated at 37° C. for 20 min and then media removed and 3 mL of HBSS added to each plate. Cells were detached using a cell scraper, pelleted by centrifugation at 1,000 rcf for 5 min and the pellet processed using a CAPTUREome S-Palmitoylated Protein Kit (Badrilla, UK) according to the manufacturer's protocol. Samples were resolved by electrophoresis using 4-20% SDS-polyacrylamide gels (Bio-Rad) under denaturing and reducing conditions. Proteins were then electrotransferred to a PVDF membrane (Bio-Rad). […]
Assays were performed in 3 biological replicates. […] Western blots were analyzed using ImageJ^1. […]

AKT1 (pS473) = assay: Detection of AKT1 phosphorylation in T24 cells (western blot); format: cell-based, human; details: T24 cells (oncogenic HRas mutation), 1.25 μmol/10^7 cells, 1 h
Experimental: T24 cells were grown to confluency in 6 cm plates. Stock solutions of compounds were prepared in DMSO as before and diluted to the final indicated concentration in 2 mL of OptiMEM media before adding to cells. Cells were incubated at 37° C. for 1 h and then media removed and 1.5 mL of HBSS added to each plate. Cells were detached using a cell scraper, pelleted by centrifugation at 1,000 rcf for 5 min and the pellet processed using MPER™ Mammalian Protein Extraction Reagent (ThermoFisher) with the addition of Halt Protease Inhibitor Cocktail (ThermoFisher) and 1 mM sodium orthovanadate. Samples were resolved by electrophoresis using 4-20% SDS-polyacrylamide gels (Bio-Rad) under denaturing and reducing conditions. Proteins were then electrotransferred to a PVDF membrane (Bio-Rad). The membrane was blocked with 3% BSA and then subjected to immunoblot analysis using AKT/MAPK Signaling Pathway Antibody Cocktail (ab151279) (Abcam) and secondary goat anti-rabbit IgG-HRP (sc-2030) (Santa Cruz Biotechnology). Chemiluminescent detection was performed by using SuperSignal West Pico PLUS chemiluminescent substrate (ThermoFisher) according to the manufacturer's instructions.
Assays were performed in 3 biological replicates. Western blots were analyzed using ImageJl. The intensity of the protein band in each condition was normalized to the intensity of the corresponding loading control (Rab11). […]

INCL lymphoblasts = format: cell-based, human
Experimental: INCL lymphoblasts were plated at 100,000 cells/well in 80 μL of OptiMEM in a 96 well plate. Stock organic solutions were prepared as before and then diluted to 5× stock solutions in OptiMEM. 20 μL of the OptiMEM stocks was then added to the appropriate wells to achieve the indicated final concentration of the compound in 100 μL of cell suspension. After a 24 h incubation, 10 μL of WST-1 reagent (Sigma-Aldrich) was added to each well and cells incubated for 1 h at 37° C., 5% CO2. Absorbance measurements were taken using a Satire II plate reader (Tecan) at 440 nm using 690 nm as a reference. The background absorbance of the WST-1 reagent in media was subtracted and cell viability was reported as a percentage of the viability of the non-treated control cells. All conditions were tested in 4 replicate wells and values reported as means±SD.

GAP43 = target: T2, GAP43 (Homo sapiens, UniProt P17677); assay: Acyl resin-assisted capture detection of GAP43 palmitoylation in INCL lymphoblasts; format: cell-based; details: 0.05 μmol/10^7 cells, 24 h
T2 construct: Western blot detection of endogenous GAP43 in acyl resin-assisted capture fractions; host or cells: INCL human lymphoblasts
T2 sequence (P17677 1-238): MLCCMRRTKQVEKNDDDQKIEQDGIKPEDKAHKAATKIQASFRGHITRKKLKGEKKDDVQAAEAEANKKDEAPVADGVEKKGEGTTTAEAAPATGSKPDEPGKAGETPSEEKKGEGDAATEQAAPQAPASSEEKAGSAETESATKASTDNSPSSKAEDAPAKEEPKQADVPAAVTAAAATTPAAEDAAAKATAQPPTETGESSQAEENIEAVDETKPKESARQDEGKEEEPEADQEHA
Experimental: INCL Lymphoblasts were adjusted to 1,000,000 cells/mL in 20 mL of OptiMem Media. Stock solutions of compounds were prepared in DMSO as before and diluted to the indicated final concentration in the cell suspension. […] Cells were pelleted by centrifugation at 1,000 rcf for 5 min and the pellet processed using a CAPTUREome S-Palmitoylated Protein Kit (Badrilla, UK) according to the manufacturer's protocol. Samples were resolved by electrophoresis using 4-20% SDS-polyacrylamide gels (Bio-Rad) under denaturing and reducing conditions. Proteins were then electrotransferred to a PVDF membrane (Bio-Rad). The membrane was blocked with 3% BSA and then subjected to immunoblot analysis using GAP-43 (B-5) Antibody (sc-17790) (Santa Cruz Biotechnology) and secondary antibody goat anti-mouse IgG HRP (ThermoFisher). Chemiluminescent detection was performed by using SuperSignal West Pico PLUS chemiluminescent substrate (ThermoFisher) according to the manufacturer's instructions.
Assays were performed in 3 biological replicates. Each replicate involved the analysis of 4 to 5 conditions side-by-side. Western blots were analyzed using ImageJ^1. The intensity of the protein band in each cleaved bound fraction (palmitoylated protein fraction) was normalized to the intensity of the corresponding input fraction (total protein fraction). The values within individual S 4 replicates were normalized to the control or vehicle condition and reported as means±SD. An unpaired t test was performed to determine the significance between means.

T1 sequence (P16070 21-742): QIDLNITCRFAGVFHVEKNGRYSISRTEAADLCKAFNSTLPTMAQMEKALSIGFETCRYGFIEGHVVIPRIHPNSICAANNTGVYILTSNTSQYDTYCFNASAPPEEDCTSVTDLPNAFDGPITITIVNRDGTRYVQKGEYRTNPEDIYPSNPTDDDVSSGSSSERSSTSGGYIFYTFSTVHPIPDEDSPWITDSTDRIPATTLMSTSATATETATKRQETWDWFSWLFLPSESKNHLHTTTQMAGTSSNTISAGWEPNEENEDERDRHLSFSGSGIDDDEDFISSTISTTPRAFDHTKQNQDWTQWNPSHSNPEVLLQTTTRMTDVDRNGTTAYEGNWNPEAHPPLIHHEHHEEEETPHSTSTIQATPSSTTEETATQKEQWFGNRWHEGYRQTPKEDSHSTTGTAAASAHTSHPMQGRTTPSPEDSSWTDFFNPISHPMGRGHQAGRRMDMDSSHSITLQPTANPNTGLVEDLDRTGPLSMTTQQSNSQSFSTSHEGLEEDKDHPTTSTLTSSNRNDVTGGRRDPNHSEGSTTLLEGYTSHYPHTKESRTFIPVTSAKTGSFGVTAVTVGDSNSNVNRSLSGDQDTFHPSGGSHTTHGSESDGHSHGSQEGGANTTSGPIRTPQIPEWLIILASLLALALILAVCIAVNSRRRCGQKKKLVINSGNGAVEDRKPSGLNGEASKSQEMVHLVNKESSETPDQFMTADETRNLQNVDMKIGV

reduction of palmitoylation level of CD44 (CD44): > 80%
level of GAP43 palmitoylation (GAP43): significantly reduced
SMILES: CCCCCCCCNC(=O)[C@@H](N)CS [compound 1, H2N-L-Cys-Oct]
AKT1 phosphorylation (AKT1 (pS473)): near complete abrogation
doses that did not decrease cell viability compared to the nontreated control (INCL lymphoblasts): up to 0.08 μmol/10^7 cells
